# Data: ChEMBL document CHEMBL1133967, “New leads for selective inhibitors of alpha-L-fucosidases. Synthesis and glycosidase inhibitory activities of [(2R,3S,4R)-3,4-dihydroxypyrrolidin-2-yl]furan derivatives” (Bioorg Med Chem Lett, 2001)
# The source made the active and inactive calls. The rule behind the calls is not given here.
# Legend:
# Prunus dulcis [1] = experiment: Percent inhibition against Alpha-mannosidase of Almonds at 1 mM
# [2] = target: Beta-galactosidase (Escherichia coli) (UniProt Q8VNN2); experiment: Inhibitory activity against beta-D-Galactosidase of Escherichia coli at 1 mM; No inhibition
# [3] = target: T1, Beta-galactosidase (Bos taurus) (UniProt Q58D55); experiment: Percent inhibition against Beta-D-galactosidase of bovine liver at 1 mM
# T1 sequence (whole entry): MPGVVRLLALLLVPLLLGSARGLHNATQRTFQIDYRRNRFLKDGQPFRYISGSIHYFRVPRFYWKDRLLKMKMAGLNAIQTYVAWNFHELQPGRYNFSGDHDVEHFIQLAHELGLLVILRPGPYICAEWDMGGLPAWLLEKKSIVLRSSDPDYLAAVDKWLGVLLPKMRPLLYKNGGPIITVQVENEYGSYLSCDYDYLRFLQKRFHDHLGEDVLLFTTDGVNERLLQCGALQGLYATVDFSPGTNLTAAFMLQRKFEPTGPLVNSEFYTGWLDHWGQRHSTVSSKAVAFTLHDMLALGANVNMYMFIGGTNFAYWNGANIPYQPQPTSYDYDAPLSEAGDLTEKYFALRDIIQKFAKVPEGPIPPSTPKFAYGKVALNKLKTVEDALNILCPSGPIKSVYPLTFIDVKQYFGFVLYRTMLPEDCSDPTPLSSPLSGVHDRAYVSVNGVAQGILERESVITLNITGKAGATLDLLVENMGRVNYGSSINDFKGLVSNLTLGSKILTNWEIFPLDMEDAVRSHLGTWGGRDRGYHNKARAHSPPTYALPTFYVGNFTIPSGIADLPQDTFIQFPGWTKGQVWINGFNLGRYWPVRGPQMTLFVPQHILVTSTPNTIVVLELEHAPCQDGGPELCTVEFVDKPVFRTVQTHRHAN
# [4] = Inhibitory activity against Alpha-mannosidase of Jack bean expressed as Ki; set-up: species or system Canavalia ensiformis
# Beta-galactosidase = Beta-galactosidase (Bos taurus, UniProt Q58D55); experiment: Inhibitory concentration against Beta-D-galactosidase of bovine liver
# [5] = target: Glucoamylase (Aspergillus niger) (UniProt P69328); experiment: Percent inhibition against Amyloglucosidase of Aspergillus niger at 1 mM
# [6] = Inhibitory concentration against Alpha-mannosidase of Jack bean; set-up: species or system Canavalia ensiformis
# Canavalia ensiformis [7] = experiment: Percent inhibition against Alpha-mannosidase of Jack bean at 1 mM
# [8] = target: T2, Beta-galactosidase (Aspergillus niger) (UniProt P29853); experiment: Inhibitory activity against Beta-D-galactosidase of Aspergillus niger at 1 mM; No inhibition
# T2 sequence (whole entry): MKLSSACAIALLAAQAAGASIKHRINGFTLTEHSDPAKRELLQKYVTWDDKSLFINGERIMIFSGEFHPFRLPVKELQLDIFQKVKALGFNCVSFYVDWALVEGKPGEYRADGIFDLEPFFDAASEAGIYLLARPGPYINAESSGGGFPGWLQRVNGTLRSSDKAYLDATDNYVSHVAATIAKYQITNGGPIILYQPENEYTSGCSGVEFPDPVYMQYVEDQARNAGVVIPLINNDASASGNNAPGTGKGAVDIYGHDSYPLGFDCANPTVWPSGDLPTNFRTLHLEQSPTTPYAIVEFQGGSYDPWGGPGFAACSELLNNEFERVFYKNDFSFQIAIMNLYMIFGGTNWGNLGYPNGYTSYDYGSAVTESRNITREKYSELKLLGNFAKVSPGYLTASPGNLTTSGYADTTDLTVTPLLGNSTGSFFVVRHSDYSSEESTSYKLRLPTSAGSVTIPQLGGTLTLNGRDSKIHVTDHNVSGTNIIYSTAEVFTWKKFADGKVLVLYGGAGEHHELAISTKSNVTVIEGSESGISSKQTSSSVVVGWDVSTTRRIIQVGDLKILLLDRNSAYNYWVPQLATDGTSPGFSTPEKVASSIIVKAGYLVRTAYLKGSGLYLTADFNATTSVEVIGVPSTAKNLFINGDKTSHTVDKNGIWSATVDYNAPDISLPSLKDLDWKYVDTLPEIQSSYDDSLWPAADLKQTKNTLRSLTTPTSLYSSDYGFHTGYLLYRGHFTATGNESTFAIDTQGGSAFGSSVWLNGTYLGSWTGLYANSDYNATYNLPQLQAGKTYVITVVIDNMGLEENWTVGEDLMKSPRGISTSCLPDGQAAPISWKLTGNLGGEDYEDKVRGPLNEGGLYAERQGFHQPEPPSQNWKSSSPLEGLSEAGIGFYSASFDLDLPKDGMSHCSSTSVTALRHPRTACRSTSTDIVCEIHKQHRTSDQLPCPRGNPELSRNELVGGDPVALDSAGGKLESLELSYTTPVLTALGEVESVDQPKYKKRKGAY
# [9] = target: T3, Tissue alpha-L-fucosidase (Homo sapiens) (UniProt P04066); experiment: Percent inhibition against alpha-L-Fucosidase of human placenta at 1 mM
# T3 sequence (whole entry): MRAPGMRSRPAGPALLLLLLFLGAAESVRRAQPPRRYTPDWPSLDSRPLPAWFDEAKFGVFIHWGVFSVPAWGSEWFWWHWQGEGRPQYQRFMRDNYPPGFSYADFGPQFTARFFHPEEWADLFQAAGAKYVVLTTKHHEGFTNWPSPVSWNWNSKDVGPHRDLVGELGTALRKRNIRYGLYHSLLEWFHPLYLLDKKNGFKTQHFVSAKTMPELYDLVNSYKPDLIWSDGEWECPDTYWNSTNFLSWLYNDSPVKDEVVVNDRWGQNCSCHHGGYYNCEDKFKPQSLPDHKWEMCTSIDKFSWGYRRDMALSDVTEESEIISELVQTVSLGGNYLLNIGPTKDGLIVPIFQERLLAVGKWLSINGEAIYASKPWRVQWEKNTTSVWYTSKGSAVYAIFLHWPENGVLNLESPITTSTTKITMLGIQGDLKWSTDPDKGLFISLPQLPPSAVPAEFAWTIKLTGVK
# [10] = target: Beta-galactosidase (Escherichia coli) (UniProt Q8VNN2); experiment: Inhibitory activity against Beta-D-galactosidase of Escherichia coli at 1 mM; No inhibition
# Aspergillus niger = experiment: Inhibitory activity against Alpha-galactosidase of Aspergillus niger at 1 mM; No inhibition
# [11] = system: Caldicellulosiruptor saccharolyticus; experiment: Inhibitory activity against Beta-glucosidase of Caldocellum saccharolyticum at 1 mM; No inhibition
# Canavalia ensiformis [12] = experiment: Inhibitory activity against Beta-D-galactosidase of Jack bean at 1 mM; No inhibition
# Coffea arabica = experiment: Percent inhibition against Alpha-galactosidase of coffee bean at 1 mM
# maltase (Oryza sativa) = experiment: Inhibitory activity against maltase of rice at 1 mM; No inhibition
# [13] = system: Beta-N-acetylglucosaminidase (Canavalia ensiformis); experiment: Inhibitory activity against Beta-N-acetylglucosaminidase of Jack bean at 1 mM; No inhibition
# Gallus gallus = organism: Gallus gallus; experiment: Inhibitory activity against alpha-N-acetylgalactosaminidase of chicken liver at 1 mM; No inhibition
# Aspergillus oryzae = experiment: Inhibitory activity against Beta-D-galactosidase of Aspergillus oryzae at 1 mM; No inhibition
# Prunus dulcis [14] = experiment: Inhibitory activity against Beta-glucosidase of almonds at 1 mM; No inhibition
# Escherichia coli = experiment: Inhibitory activity against Alpha-galactosidase of Escherichia coli at 1 mM; No inhibition
# [15] = target: T4, Tissue alpha-L-fucosidase (Homo sapiens, UniProt P04066); experiment: Inhibitory activity against alpha-L-Fucosidase of human placenta expressed as Ki
# T4 sequence (P04066 whole entry): T3 sequence (whole entry)
# [16] = system: Beta-N-acetylglucosaminidase (Bos taurus); experiment: Inhibitory activity against Beta-N-acetylglucosaminidase of bovine epididymis B at 1 mM; No inhibition
# [17] = system: isomaltase (Saccharomyces cerevisiae); experiment: Inhibitory activity against isomaltase of baker yeast at 1 mM; No inhibition
# Rhizopus = experiment: Percent inhibition against Amyloglucosidase of Rhizopus mold at 1 mM
# [18] = system: maltase (Saccharomyces cerevisiae); experiment: Inhibitory activity against maltase of yeast at 1 mM; No inhibition
# [19] = target: T4, Tissue alpha-L-fucosidase; experiment: Inhibitory concentration against alpha-L-Fucosidase of human placenta
# Helix pomatia = experiment: Inhibitory activity against Beta-mannosidase of Helix pomatia at 1 mM; No inhibition
# [20] = system: Beta-N-acetylglucosaminidase (Bos taurus); experiment: Inhibitory activity against Beta-N-acetylglucosaminidase of bovine epididymis A at 1 mM; No inhibition
# Sequence of Glucoamylase (Aspergillus niger) (P69328 whole entry): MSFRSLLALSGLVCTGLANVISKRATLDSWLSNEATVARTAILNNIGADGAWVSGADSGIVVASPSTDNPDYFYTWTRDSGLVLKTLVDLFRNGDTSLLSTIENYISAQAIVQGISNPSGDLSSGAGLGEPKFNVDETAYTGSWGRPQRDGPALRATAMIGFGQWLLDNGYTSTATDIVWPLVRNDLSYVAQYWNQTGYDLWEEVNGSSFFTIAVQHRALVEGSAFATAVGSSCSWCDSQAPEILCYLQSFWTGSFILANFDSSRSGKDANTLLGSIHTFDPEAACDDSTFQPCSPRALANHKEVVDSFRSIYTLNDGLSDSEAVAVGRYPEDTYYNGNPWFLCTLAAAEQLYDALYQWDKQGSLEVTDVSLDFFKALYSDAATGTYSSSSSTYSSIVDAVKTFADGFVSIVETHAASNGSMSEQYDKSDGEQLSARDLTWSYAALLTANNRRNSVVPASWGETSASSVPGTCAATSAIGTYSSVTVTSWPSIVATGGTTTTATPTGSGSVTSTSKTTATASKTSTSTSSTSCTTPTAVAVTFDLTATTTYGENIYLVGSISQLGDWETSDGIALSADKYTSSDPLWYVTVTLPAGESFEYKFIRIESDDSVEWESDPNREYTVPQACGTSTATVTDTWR
# Sequence of Beta-galactosidase (Escherichia coli) (Q8VNN2 whole entry, looked up): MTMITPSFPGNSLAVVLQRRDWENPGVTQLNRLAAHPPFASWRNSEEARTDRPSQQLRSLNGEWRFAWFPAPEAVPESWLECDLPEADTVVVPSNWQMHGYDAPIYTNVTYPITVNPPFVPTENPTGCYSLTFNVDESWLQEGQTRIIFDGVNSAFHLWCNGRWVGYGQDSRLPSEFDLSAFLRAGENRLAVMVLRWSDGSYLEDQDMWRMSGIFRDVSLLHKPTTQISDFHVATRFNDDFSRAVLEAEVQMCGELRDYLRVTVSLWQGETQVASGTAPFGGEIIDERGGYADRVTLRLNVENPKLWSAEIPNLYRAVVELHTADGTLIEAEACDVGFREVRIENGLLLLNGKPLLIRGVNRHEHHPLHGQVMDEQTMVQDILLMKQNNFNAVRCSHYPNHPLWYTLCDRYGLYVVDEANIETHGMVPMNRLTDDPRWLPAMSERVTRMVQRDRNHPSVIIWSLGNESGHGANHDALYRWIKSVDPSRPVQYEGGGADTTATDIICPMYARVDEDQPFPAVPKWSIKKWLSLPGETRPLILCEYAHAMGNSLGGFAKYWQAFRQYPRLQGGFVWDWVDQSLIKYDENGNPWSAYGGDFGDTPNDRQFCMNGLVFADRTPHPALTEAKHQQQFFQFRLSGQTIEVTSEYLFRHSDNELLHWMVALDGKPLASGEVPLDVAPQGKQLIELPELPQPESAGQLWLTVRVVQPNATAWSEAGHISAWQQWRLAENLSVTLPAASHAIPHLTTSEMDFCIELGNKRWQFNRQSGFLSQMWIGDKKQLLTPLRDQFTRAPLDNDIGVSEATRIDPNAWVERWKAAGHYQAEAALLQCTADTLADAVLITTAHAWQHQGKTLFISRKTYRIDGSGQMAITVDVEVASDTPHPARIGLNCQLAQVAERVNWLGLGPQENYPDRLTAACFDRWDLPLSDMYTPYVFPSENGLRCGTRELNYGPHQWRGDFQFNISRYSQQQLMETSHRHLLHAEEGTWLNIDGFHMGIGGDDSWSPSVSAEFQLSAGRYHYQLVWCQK
compound,measurement,setting,value
Cc1oc(C2NCC(O)C2O)cc1C(=O)OC(C)C (stereo not given),inhibition,Prunus dulcis [1],57%
same,inhibition,[2],inactive
same,inhibition,[3],57%
same,Ki,[4],85 µM
same,IC50,Beta-galactosidase,640 µM
same,inhibition,[5],27%
same,IC50,[6],250 µM
same,inhibition,Canavalia ensiformis [7],78%
same,inhibition,[8],inactive
COC(=O)c1cc(C2NCC(O)C2O)oc1C (stereo not given),inhibition,[9],88%
same,inhibition,[10],No inhibition
same,inhibition,Aspergillus niger,No inhibition
same,inhibition,Prunus dulcis [1],36%
same,inhibition,[11],No inhibition
same,inhibition,Canavalia ensiformis [12],No inhibition
same,inhibition,Coffea arabica,42%
same,inhibition,maltase (Oryza sativa),No inhibition
same,inhibition,[3],54%
same,inhibition,[13],inactive
same,inhibition,Gallus gallus,No inhibition
same,IC50,Beta-galactosidase,800 µM
same,inhibition,Aspergillus oryzae,No inhibition
same,inhibition,Prunus dulcis [14],inactive
same,inhibition,Escherichia coli,No inhibition
same,Ki,[15],13.8 µM
same,inhibition,[5],23%
same,inhibition,[16],inactive
same,inhibition,[17],No inhibition
same,inhibition,Rhizopus,33%
same,inhibition,[18],No inhibition
same,inhibition,Canavalia ensiformis [7],23%
same,IC50,[19],150 µM
same,inhibition,Helix pomatia,No inhibition
same,inhibition,[8],No inhibition
same,inhibition,[20],inactive
